Species on record: Rattus norvegicus
Experiment: Open TG-GATES - Regimen: Single
Format: toxicity, organism-based, Sprague-Dawley
Set-up: regimen Single, gender Male, age 6 weeks
Settings: in vivo, po, route gavage; for Hb / Ht / Lym / MCHC / MCV / Mono / Neu / PT / Plat / RBC / Ret / WBC / APTT / Bas / Eos / Fbg: tissue Blood; for KIDNEY_L / KIDNEY_R / KIDNEY_TOTAL: tissue Kidney; for LIVER: tissue Liver; for ALP / ALT / AST / BUN / CRE / Ca / Cl / DBIL / IP / LDH / Na / PL / RALB / TBIL / TC / TG / TP / gamma-GTP / GLC: tissue Plasma
[1] = 120 mg/kg, 3 h, dose level Middle

CC(C)N(CCC(C(N)=O)(c1ccccc1)c1ccccn1)C(C)C (centres undefined) [DISOPYRAMIDE]
Hb (40 mg/kg, 3 h, dose level Low): 13 g/dL | Ht (40 mg/kg, 3 h, dose level Low): 40.8% | Lym (40 mg/kg, 3 h, dose level Low): 79.6% | MCHC (40 mg/kg, 3 h, dose level Low): 32% | MCV (40 mg/kg, 3 h, dose level Low): 64.4 fL | Mono (40 mg/kg, 3 h, dose level Low): 2.6% | Neu (40 mg/kg, 3 h, dose level Low): 15.8% | PT (40 mg/kg, 3 h, dose level Low): 15.5 s | Plat (40 mg/kg, 3 h, dose level Low): 122.4 x10_4/uL | RBC (40 mg/kg, 3 h, dose level Low): 633.6 x10_4/ul | Ret (40 mg/kg, 3 h, dose level Low): 8.2% | WBC (40 mg/kg, 3 h, dose level Low): 102.4 x10_2/uL | KIDNEY_L (40 mg/kg, 3 h, dose level Low): 0.9 g | KIDNEY_R (40 mg/kg, 3 h, dose level Low): 1 g | KIDNEY_TOTAL (40 mg/kg, 3 h, dose level Low): 1.9 g | LIVER (40 mg/kg, 3 h, dose level Low): 9.9 g | ALP (40 mg/kg, 3 h, dose level Low): 1280.4 IU/L | ALT (40 mg/kg, 3 h, dose level Low): 48.2 IU/L | AST (40 mg/kg, 3 h, dose level Low): 73.2 IU/L | BUN (40 mg/kg, 3 h, dose level Low): 10.6 mg/dL | CRE (40 mg/kg, 3 h, dose level Low): 0.2 mg/dL | Ca (40 mg/kg, 3 h, dose level Low): 10.7 mg/dL | Cl (40 mg/kg, 3 h, dose level Low): 107.4 meq/L | DBIL (40 mg/kg, 3 h, dose level Low): 0 mg/dL | IP (40 mg/kg, 3 h, dose level Low): 8.5 mg/dL | LDH (40 mg/kg, 3 h, dose level Low): 163.4 IU/L | Na (40 mg/kg, 3 h, dose level Low): 140.8 meq/L | PL (40 mg/kg, 3 h, dose level Low): 143.2 mg/dL | RALB (40 mg/kg, 3 h, dose level Low): 3 g/dL | TBIL (40 mg/kg, 3 h, dose level Low): 0.002 mg/dL | TC (40 mg/kg, 3 h, dose level Low): 82.4 mg/dL | TG (40 mg/kg, 3 h, dose level Low): 60.6 mg/dL | TP (40 mg/kg, 3 h, dose level Low): 5.5 g/dL | gamma-GTP (40 mg/kg, 3 h, dose level Low): 1.6 IU/L | TERMINAL_BW (40 mg/kg, 6 h, dose level Low): 212.3 g | APTT (40 mg/kg, 6 h, dose level Low): 21.2 s | Bas (40 mg/kg, 6 h, dose level Low): 0% | Eos (40 mg/kg, 6 h, dose level Low): 0.6% | Fbg (40 mg/kg, 6 h, dose level Low): 307.6 mg/dL | Hb (40 mg/kg, 6 h, dose level Low): 13 g/dL | Ht (40 mg/kg, 6 h, dose level Low): 40.9% | Lym (40 mg/kg, 6 h, dose level Low): 80.6% | MCHC (40 mg/kg, 6 h, dose level Low): 31.8% | MCV (40 mg/kg, 6 h, dose level Low): 64.3 fL | Mono (40 mg/kg, 6 h, dose level Low): 2.4% | Neu (40 mg/kg, 6 h, dose level Low): 15.8% | PT (40 mg/kg, 6 h, dose level Low): 15.5 s | Plat (40 mg/kg, 6 h, dose level Low): 119.9 x10_4/uL | RBC (40 mg/kg, 6 h, dose level Low): 635.8 x10_4/ul | Ret (40 mg/kg, 6 h, dose level Low): 8.1% | WBC (40 mg/kg, 6 h, dose level Low): 80.4 x10_2/uL | KIDNEY_L (40 mg/kg, 6 h, dose level Low): 1 g | KIDNEY_R (40 mg/kg, 6 h, dose level Low): 1 g | KIDNEY_TOTAL (40 mg/kg, 6 h, dose level Low): 2 g | LIVER (40 mg/kg, 6 h, dose level Low): 9.3 g | ALP (40 mg/kg, 6 h, dose level Low): 1258.6 IU/L | ALT (40 mg/kg, 6 h, dose level Low): 40 IU/L | AST (40 mg/kg, 6 h, dose level Low): 71.2 IU/L | BUN (40 mg/kg, 6 h, dose level Low): 12.4 mg/dL | CRE (40 mg/kg, 6 h, dose level Low): 0.1 mg/dL | Ca (40 mg/kg, 6 h, dose level Low): 10.8 mg/dL | Cl (40 mg/kg, 6 h, dose level Low): 106.2 meq/L | DBIL (40 mg/kg, 6 h, dose level Low): 0 mg/dL | GLC (40 mg/kg, 6 h, dose level Low): 168.6 mg/dL | IP (40 mg/kg, 6 h, dose level Low): 9.5 mg/dL | LDH (40 mg/kg, 6 h, dose level Low): 161.8 IU/L | Na (40 mg/kg, 6 h, dose level Low): 140 meq/L | PL (40 mg/kg, 6 h, dose level Low): 132.2 mg/dL | RALB (40 mg/kg, 6 h, dose level Low): 3 g/dL | TBIL (40 mg/kg, 6 h, dose level Low): 0.008 mg/dL | TC (40 mg/kg, 6 h, dose level Low): 75 mg/dL | TG (40 mg/kg, 6 h, dose level Low): 75.8 mg/dL | TP (40 mg/kg, 6 h, dose level Low): 5.4 g/dL | gamma-GTP (40 mg/kg, 6 h, dose level Low): 1 IU/L | TERMINAL_BW (40 mg/kg, 9 h, dose level Low): 203.3 g | APTT (40 mg/kg, 9 h, dose level Low): 21.6 s | Bas (40 mg/kg, 9 h, dose level Low): 0% | Eos (40 mg/kg, 9 h, dose level Low): 0.6% | Fbg (40 mg/kg, 9 h, dose level Low): 328.4 mg/dL | Hb (40 mg/kg, 9 h, dose level Low): 13 g/dL | Ht (40 mg/kg, 9 h, dose level Low): 40.3% | Lym (40 mg/kg, 9 h, dose level Low): 77.6% | MCHC (40 mg/kg, 9 h, dose level Low): 32.3% | MCV (40 mg/kg, 9 h, dose level Low): 64 fL | Mono (40 mg/kg, 9 h, dose level Low): 2% | PT (40 mg/kg, 9 h, dose level Low): 15.6 s | Plat (40 mg/kg, 9 h, dose level Low): 124.6 x10_4/uL | RBC (40 mg/kg, 9 h, dose level Low): 630.4 x10_4/ul | Ret (40 mg/kg, 9 h, dose level Low): 7.9% | WBC (40 mg/kg, 9 h, dose level Low): 88.7 x10_2/uL | KIDNEY_L (40 mg/kg, 9 h, dose level Low): 0.9 g | KIDNEY_R (40 mg/kg, 9 h, dose level Low): 1 g | KIDNEY_TOTAL (40 mg/kg, 9 h, dose level Low): 1.9 g | LIVER (40 mg/kg, 9 h, dose level Low): 8.7 g | ALP (40 mg/kg, 9 h, dose level Low): 1420.4 IU/L | ALT (40 mg/kg, 9 h, dose level Low): 34.2 IU/L | AST (40 mg/kg, 9 h, dose level Low): 68.6 IU/L | BUN (40 mg/kg, 9 h, dose level Low): 12.4 mg/dL | CRE (40 mg/kg, 9 h, dose level Low): 0.1 mg/dL | Ca (40 mg/kg, 9 h, dose level Low): 10.8 mg/dL | Cl (40 mg/kg, 9 h, dose level Low): 107.2 meq/L | DBIL (40 mg/kg, 9 h, dose level Low): 0 mg/dL | GLC (40 mg/kg, 9 h, dose level Low): 169.6 mg/dL | IP (40 mg/kg, 9 h, dose level Low): 9.5 mg/dL | LDH (40 mg/kg, 9 h, dose level Low): 151.6 IU/L | Na (40 mg/kg, 9 h, dose level Low): 140.8 meq/L | PL (40 mg/kg, 9 h, dose level Low): 129.4 mg/dL | RALB (40 mg/kg, 9 h, dose level Low): 3.1 g/dL | TBIL (40 mg/kg, 9 h, dose level Low): 0.008 mg/dL | TC (40 mg/kg, 9 h, dose level Low): 75.4 mg/dL | TG (40 mg/kg, 9 h, dose level Low): 58.2 mg/dL | TP (40 mg/kg, 9 h, dose level Low): 5.5 g/dL | gamma-GTP (40 mg/kg, 9 h, dose level Low): 1.2 IU/L | TERMINAL_BW (40 mg/kg, 24 h, dose level Low): 217.8 g | APTT (40 mg/kg, 24 h, dose level Low): 22.7 s | Bas (40 mg/kg, 24 h, dose level Low): 0% | Eos (40 mg/kg, 24 h, dose level Low): 0.8% | Fbg (40 mg/kg, 24 h, dose level Low): 306 mg/dL | Hb (40 mg/kg, 24 h, dose level Low): 13.2 g/dL | Ht (40 mg/kg, 24 h, dose level Low): 40.2% | Lym (40 mg/kg, 24 h, dose level Low): 79.4% | MCHC (40 mg/kg, 24 h, dose level Low): 32.8% | MCV (40 mg/kg, 24 h, dose level Low): 64.5 fL | Mono (40 mg/kg, 24 h, dose level Low): 1.8% | Neu (40 mg/kg, 24 h, dose level Low): 17.2% | PT (40 mg/kg, 24 h, dose level Low): 15.3 s | Plat (40 mg/kg, 24 h, dose level Low): 115.3 x10_4/uL | RBC (40 mg/kg, 24 h, dose level Low): 623 x10_4/ul | Ret (40 mg/kg, 24 h, dose level Low): 7% | WBC (40 mg/kg, 24 h, dose level Low): 91.1 x10_2/uL | KIDNEY_L (40 mg/kg, 24 h, dose level Low): 0.9 g | KIDNEY_R (40 mg/kg, 24 h, dose level Low): 1 g | KIDNEY_TOTAL (40 mg/kg, 24 h, dose level Low): 1.9 g | LIVER (40 mg/kg, 24 h, dose level Low): 10.5 g | ALP (40 mg/kg, 24 h, dose level Low): 1700.4 IU/L | ALT (40 mg/kg, 24 h, dose level Low): 47.2 IU/L | AST (40 mg/kg, 24 h, dose level Low): 71.8 IU/L | BUN (40 mg/kg, 24 h, dose level Low): 15.4 mg/dL | CRE (40 mg/kg, 24 h, dose level Low): 0.1 mg/dL | Ca (40 mg/kg, 24 h, dose level Low): 10.6 mg/dL | Cl (40 mg/kg, 24 h, dose level Low): 105.6 meq/L | DBIL (40 mg/kg, 24 h, dose level Low): 0 mg/dL | IP (40 mg/kg, 24 h, dose level Low): 8 mg/dL | LDH (40 mg/kg, 24 h, dose level Low): 156.2 IU/L | Na (40 mg/kg, 24 h, dose level Low): 142.8 meq/L | PL (40 mg/kg, 24 h, dose level Low): 147 mg/dL | RALB (40 mg/kg, 24 h, dose level Low): 3 g/dL | TBIL (40 mg/kg, 24 h, dose level Low): 0.002 mg/dL | TC (40 mg/kg, 24 h, dose level Low): 76.4 mg/dL | TG (40 mg/kg, 24 h, dose level Low): 96 mg/dL | TP (40 mg/kg, 24 h, dose level Low): 5.4 g/dL | gamma-GTP (40 mg/kg, 24 h, dose level Low): 1.6 IU/L | TERMINAL_BW [1]: 205.2 g | APTT [1]: 23.3 s

Reference: ChEMBL document CHEMBL3885861, “Open TG-GATES”
